Patent US20160215348A1, “GENE EXPRESSION BIOMARKERS AND THEIR USE FOR DIAGNOSTIC AND PROGNOSTIC APPLICATION IN PATIENTS POTENTIALLY IN NEED OF HDAC INHIBITOR TREATMENT” (4SC AG, priority 2013, published 2016)

What was measured:
Test in all cases: qPCR relative expression (vs cycle 1, day 1, hour 0) in patients' whole blood
Format in all cases: in vivo, human
MICALL1 = system: MICALL1
Method: (§1) 2.5 ml whole blood from patients was collected in PAXgene™ tubes (BD Biosciences) that contain chemicals to lyse the erythrocytes, stabilize RNA from degradation by RNases and minimize ex vivo changes in gene expression. The samples were incubated at 20° C. to 25° C. for 2 hours and then frozen at −20° C. until purification of total RNA.
(§2) Total RNA was isolated from the whole blood samples stabilized in PAXgene™ buffer using a spin column based technique suitable for whole blood samples (like PAXgene™ Blood miRNA Kit or PAXgene™ Blood RNA Kit from Qiagen) according to the manufacturer's instructions. The purification began with a centrifugation step to pellet nucleic acids in the (PAXgene™ Blood RNA) tube. The resuspended pellet was incubated in buffers, optimized for maintenance of RNA stability together with proteinase K to bring about protein digestion. An additional centrifugation through the PAXgene™ Shredder spin column was carried out to homogenize the cell lysate and remove residual cell debris, and the supernatant of the flow-through fraction was transferred to a fresh microcentrifuge tube. Ethanol was added to adjust binding conditions, and the lysate was applied to a PAXgene™ RNA spin column. During a brief centrifugation, RNA was selectively bound to the PAXgene™ silica membrane as contaminants pass through. Remaining contaminants were removed in several efficient wash steps. Between the first and second wash steps, the membrane was treated with DNase I, as described herein below in 1.3 to remove trace amounts of bound DNA. After the wash steps, RNA was eluted in nuclease free water and heat-denatured.
(§3) The High-Capacity cDNA Reverse Transcription Kit (Applied Biosystems) was used for reverse transcription of total RNA into single stranded cDNA with the aid of random hexamer primers according to the manufacturer's instructions. Briefly, for the reaction mix total RNA was mixed with random primers in excess, 4 mM dNTP Mix, 2.5 U/reaction, reverse transcriptase and nuclease free water. The reverse transcription took place in a thermal cycler under the following conditions: 25° C. for 10 min, 37° C. for 120 min, 85° C. for 5 min, followed by 4° C. for cooling down the reaction. The reverse transcription can be done in principle as well with other reverse transcriptases, primers and temperature protocols. Whenever possible, 250 ng total RNA were reverse transcribed if not available, lower amounts were used.
(§4) Custom TaqMan® Arrays (Applied Biosystems) in Format 16 were designed for the gene expression analysis of biomarkers of the present invention and housekeeping genes as outlined in table 4. These arrays allow for qPCR analysis of 8 samples per card. Of course, all reactions can be done as well by conventional qPCR analysis with specific primers.
(§5) The reaction mix was transferred into the reaction chambers by centrifuging twice for 1 minute each at 330 g and 4° C. After sealing, the microfluidic cards were run on an AB7900HT instrument (Applied Biosystems). The software SDS 2.4 (Applied Biosystems) was employed for instrument control, data acquisition and raw data analysis. The plates were run in Relative Quantification (ΔΔCt) mode, and the following temperature profile was used:
(§6) This analysis was carried out for each patient separately. The first sample (cycle 1, day 1, hour 0) was used as the reference sample. The ‘exprs’ value indicates relative expression levels (fold change values) for individual samples.
(§7) Table 5 contains the median expression level values for treatment day 5 (cycle 1, day 5, hours 0, 2, and 5) at a daily dose of 600 mg or 800 mg Resminostat mesylate salt is given below.

GAPDH = system: GAPDH
Method: as §1, §2, §3, §4, §5, §6, §7

TBP = system: TBP
Method: as §1, §2, §3, §4, §5, §6, §7

CCDC43 = system: CCDC43
Method: as §1, §2, §3, §4, §5, §6, §7

18S = system: 18S
Method: as §1, §2, §3, §4, §5, §6, §7

ZFP64 = system: ZFP64
Method: as §1, §2, §3, §4, §5, §6, §7

DPP3 = system: DPP3
Method: as §1, §2, §3, §4, §5, §6, §7

HIST2H4A; HIST2H4B = system: HIST2H4A; HIST2H4B
Method: as §1, §2, §3, §4, §5, §6, §7

KDELC2 = system: KDELC2
Method: as §1, §2, §3, §4, §5, §6, §7

[1] = cycle 1, day 5, hour 0, 600 mg dose
[2] = cycle 1, day 5, hour 0, 800 mg dose
[3] = cycle 1, day 5, hour 2, 600 mg dose
[4] = cycle 1, day 5, hour 2, 800 mg dose
[5] = cycle 1, day 5, hour 5, 600 mg dose
[6] = cycle 1, day 5, hour 5, 800 mg dose

## CN(C)Cc1ccc(S(=O)(=O)n2ccc(/C=C/C(=O)NO)c2)cc1 [resminostat, (E)-3-(1-(4-((dimethylamino)methyl)phenylsulfonyl)-1H-pyrrol-3-yl)-N-hydroxyacrylamide]
MICALL1; [1]
  Median expression level, MICALL1: 0.981
MICALL1; [2]
  Median expression level, MICALL1: 1.024
MICALL1; [3]
  Median expression level, MICALL1: 0.395
MICALL1; [4]
  Median expression level, MICALL1: 0.407
MICALL1; [5]
  Median expression level, MICALL1: 0.201
MICALL1; [6]
  Median expression level, MICALL1: 0.163
GAPDH; [1]
  Median expression level, GAPDH: 1.092
GAPDH; [2]
  Median expression level, GAPDH: 1.136
GAPDH; [3]
  Median expression level, GAPDH: 1.201
GAPDH; [4]
  Median expression level, GAPDH: 1.362
GAPDH; [5]
  Median expression level, GAPDH: 1.296
GAPDH; [6]
  Median expression level, GAPDH: 1.228
TBP; [1]
  Median expression level, TBP: 0.991
TBP; [2]
  Median expression level, TBP: 1.305
TBP; [3]
  Median expression level, TBP: 0.994
TBP; [4]
  Median expression level, TBP: 1.071
TBP; [5]
  Median expression level, TBP: 1.052
TBP; [6]
  Median expression level, TBP: 1.286
CCDC43; [1]
  Median expression level, CCDC43: 0.917
CCDC43; [2]
  Median expression level, CCDC43: 1.391
CCDC43; [3]
  Median expression level, CCDC43: 0.318
CCDC43; [4]
  Median expression level, CCDC43: 0.329
CCDC43; [5]
  Median expression level, CCDC43: 0.378
CCDC43; [6]
  Median expression level, CCDC43: 0.319
18S; [1]
  Median expression level, 18S: 0.872
18S; [2]
  Median expression level, 18S: 0.635
18S; [3]
  Median expression level, 18S: 0.871
18S; [4]
  Median expression level, 18S: 0.682
18S; [5]
  Median expression level, 18S: 0.778
18S; [6]
  Median expression level, 18S: 0.550
ZFP64; blood cells of HCC and HL patients, 600 or 800 mg daily, Day 1 and Day 5
  ZFP64 expression in cancer patients (FIG. 4b): down-regulates
ZFP64; [1]
  Median expression level, ZFP64: 0.980
ZFP64; [2]
  Median expression level, ZFP64: 1.280
ZFP64; [3]
  Median expression level, ZFP64: 0.412
ZFP64; [4]
  Median expression level, ZFP64: 0.356
ZFP64; [5]
  Median expression level, ZFP64: 0.228
ZFP64; [6]
  Median expression level, ZFP64: 0.188
DPP3; [1]
  Median expression level, DPP3: 1.121
DPP3; [2]
  Median expression level, DPP3: 1.457
DPP3; [3]
  Median expression level, DPP3: 0.767
DPP3; [4]
  Median expression level, DPP3: 0.912
DPP3; [5]
  Median expression level, DPP3: 0.267
DPP3; [6]
  Median expression level, DPP3: 0.395
HIST2H4A; HIST2H4B; [1]
  Median expression level, HIST2H4A; HIST2H4B: 0.875
HIST2H4A; HIST2H4B; [2]
  Median expression level, HIST2H4A; HIST2H4B: 1.530
HIST2H4A; HIST2H4B; [3]
  Median expression level, HIST2H4A; HIST2H4B: 2.111
HIST2H4A; HIST2H4B; [4]
  Median expression level, HIST2H4A; HIST2H4B: 3.345
HIST2H4A; HIST2H4B; [5]
  Median expression level, HIST2H4A; HIST2H4B: 2.042
HIST2H4A; HIST2H4B; [6]
  Median expression level, HIST2H4A; HIST2H4B: 2.821
KDELC2; [1]
  Median expression level, KDELC2: 0.909
KDELC2; [2]
  Median expression level, KDELC2: 1.141
KDELC2; [3]
  Median expression level, KDELC2: 0.544
KDELC2; [4]
  Median expression level, KDELC2: 0.509
KDELC2; [5]
  Median expression level, KDELC2: 0.215
KDELC2; [6]
  Median expression level, KDELC2: 0.215
